Test results from US4474747A, “Process for increasing the tolerance of X-ray contrast media, and contrast media obtained thereby” (Guerbet S.A., priority 1981, dated 1984).

Columns and labels:
[1] = tested on: Rats; assay: Acute intracisternal toxicity (method of Melartin et al.), rats; format: in vivo
Procedure: (§1) Acute intracisternal toxicity was determined by the method of E. Melartin, P. Tuohimaa, R. Dabb, Investigative Radiology, 1970, vol. 5, n°1, 13-21.

[2] = tested on: Mice; assay: Acute intracisternal toxicity (method of Melartin et al.), mice; format: in vivo
Procedure: as §1

[3] = target: proteins (Homo sapiens, UniProt P02768); assay: Protein binding, Brodersen technique; format: in vitro ADME
Source text: The degree of the interaction with proteins is an index of the tolerance of contrast media. The lower this interaction, the better the tolerance.
The protein binding was investigated according to the Brodersen technique (J. of Clinical Investigation, 1974, vol. 4, 1353-1364).

Sequence of proteins (P02768 25-609): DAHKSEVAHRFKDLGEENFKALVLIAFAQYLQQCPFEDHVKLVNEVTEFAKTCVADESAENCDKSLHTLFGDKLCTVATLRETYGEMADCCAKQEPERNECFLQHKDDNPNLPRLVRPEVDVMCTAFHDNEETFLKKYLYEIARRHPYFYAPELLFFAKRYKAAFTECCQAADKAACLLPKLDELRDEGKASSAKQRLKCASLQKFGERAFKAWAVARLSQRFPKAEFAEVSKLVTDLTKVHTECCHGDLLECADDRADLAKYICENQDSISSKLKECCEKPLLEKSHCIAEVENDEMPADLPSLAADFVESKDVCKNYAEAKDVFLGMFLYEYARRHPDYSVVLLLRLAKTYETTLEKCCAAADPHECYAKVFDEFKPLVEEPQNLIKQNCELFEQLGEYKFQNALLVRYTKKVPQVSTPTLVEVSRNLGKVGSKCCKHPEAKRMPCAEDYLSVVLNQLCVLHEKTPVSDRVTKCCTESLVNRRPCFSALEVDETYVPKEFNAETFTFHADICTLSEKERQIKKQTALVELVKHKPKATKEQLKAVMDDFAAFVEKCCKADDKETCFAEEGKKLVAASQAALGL

Kd [3] [mM]	SMILES	further results
	CNC(=O)c1c(I)c(NC(C)=O)c(I)c(C(=O)O)c1I [Contrix (methylglucamine iothalamate), methylglucamine iothalamate]	Acute toxicity IC (DL50) Rats [1]: 0.028 mole/rat
	CC(=O)Nc1c(I)c(C(=O)O)c(I)c(C(=O)NCCO)c1I [Telebrix]	Acute toxicity IC (DL50) Mice [2]: 0.2 g Eq iodine/kg
8.2	CNC(=O)c1c(I)c(C(=O)NCC(=O)Nc2c(I)c(C(=O)O)c(I)c(C(=O)NCCO)c2I)c(I)c(N(C)C(C)=O)c1I [Methylglucamine ioxaglate]	
0.0781	O=C(CCCCC(=O)Nc1c(I)cc(I)c(C(=O)O)c1I)Nc1c(I)cc(I)c(C(=O)O)c1I [Methylglucamine adipiodone]	
